These results are taken from US10287301B2 (Achillion Pharmaceuticals, Inc., priority 2015, dated 2019).

The target in the first experiment is Human Factor D (Homo sapiens (Human), UniProt P00746). Briefly: Human Factor D Assay. The experiment is classed as biochemical.
Sequence of Human Factor D (P00746 26-253): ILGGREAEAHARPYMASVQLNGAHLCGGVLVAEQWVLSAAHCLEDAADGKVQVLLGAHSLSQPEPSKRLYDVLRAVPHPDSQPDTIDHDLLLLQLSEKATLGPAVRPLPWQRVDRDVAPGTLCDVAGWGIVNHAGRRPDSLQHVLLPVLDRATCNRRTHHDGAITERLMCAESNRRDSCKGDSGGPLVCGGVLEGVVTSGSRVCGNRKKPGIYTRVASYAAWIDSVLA
Settings: not given
The essentials:
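Thioesterase activity monitored with Z-L-Lys-SBzl plus Ellman's reagent (DTNB), each 100 μM final, after 5 min room-temperature compound preincubation of 80 nM human serum Factor D in pH 7.5 Tris (50 mM)/1M NaCl.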
Take `NC(=O)c1nn(CC(=O)N2C[C@H](F)C[C@H]2C(=O)Nc2cccnc2Cl)c2ccc(-c3ccnnc3)cc12` [Compound 185, 1-(2-((2S,4R)-2-(2-chloropyridin-3-ylcarbamoyl)-4-fluoropyrrolidin-1-yl)-2-oxoethyl)-5-(pyridazin-4-yl)-1H-indazole-3-carboxamide]: the IC50 (in general, the point on the concentration scale where inhibition reaches its midpoint) was in the range of 1000 to 10000 nM.

The experiment is the same for the next values; noted with them: Human Factor D 80 nM, substrate Z-L-Lys-SBzl; read-out: IC50.
On to `CC(=O)c1cn(CC(=O)N2C[C@H](F)C[C@H]2C(=O)Nc2ccccc2-c2nncn2C)c2ccc(-c3ccnnc3)cc12` [Compound 181, (2S,4R)-1-(2-(3-acetyl-5-(pyridazin-4-yl)-1H-indol-1-yl)acetyl)-4-fluoro-N-(2-(4-methyl-4H-1,2,4-triazol-3-yl)phenyl) pyrrolidine-2-carboxamide], for which the IC50 was greater than 10000 nM.

For `CC(=O)c1cn(CC(=O)N2C[C@H](F)C[C@H]2C(=O)Nc2noc(-c3ccccc3Cl)n2)c2ccc(-c3ccnnc3)cc12` [Compound 182, (2S,4R)-1-(2-(3-acetyl-5-(pyridazin-4-yl)-1H-indol-1-yl)acetyl)-N-(5-(2-chlorophenyl)-1,2,4-oxadiazol-3-yl)-4-fluoropyrrolidine-2-carboxamide], the IC50 is less than 1000 nM.

In the case of `CC(=O)c1cn(CC(=O)N2C[C@H](F)C[C@H]2C(=O)Nc2cccc(-c3ccccc3Cl)c2F)c2ccc(-c3cnc(O)nc3)cc12` [Compound 186, (2S,4R)-1-(2-(3-acetyl-5-(2-hydroxypyrimidin-5-yl)-1H-indol-1-yl)acetyl)-N-(2′-chloro-2-fluorobiphenyl-3-yl)-4-fluoropyrrolidine-2-carboxamide], the IC50 is less than 1000 nM.

Consider `COCCNc1ncc(-c2ccc3c(c2)c(C(C)=O)cn3CC(=O)N2C[C@H](F)C[C@H]2C(=O)Nc2cccc(-c3ccccc3Cl)c2F)cn1` [Compound 187, (2S,4R)-1-(2-(3-acetyl-5-(2-(2-methoxyethylamino)pyrimidin-5-yl)-1H-indol-1-yl)acetyl)-N-(2′-chloro-2-fluorobiphenyl-3-yl)-4-fluoropyrrolidine-2-carboxamide], for which the IC50 is less than 1000 nM.

As to `CNc1ncc(-c2ccc3c(c2)c(C(C)=O)cn3CC(=O)N2C[C@H](F)C[C@H]2C(=O)Nc2cccc(-c3ccccc3Cl)c2F)cn1` [Compound 188, (2S,4R)-1-(2-(3-acetyl-5-(2-(methylamino)pyrimidin-5-yl)-1H-indol-1-yl)acetyl)-N-(2′-chloro-2-fluorobiphenyl-3-yl)-4-fluoropyrrolidine-2-carboxamide], the IC50 is less than 1000 nM.

Take `CC(=O)c1nn(CC(=O)N2[C@@H]3C[C@@H]3C[C@H]2C(=O)Nc2cccc(-c3ccccc3Cl)c2F)c2ccc(-c3cnc(C)nc3)cc12` [Compound 189, (1R,3S,5R)-2-(2-(3-acetyl-5-(2-methylpyrimidin-5-yl)-1H-indazol-1-yl)acetyl)-N-(2′-chloro-2-fluorobiphenyl-3-yl)-2-azabicyclo[3.1.0] hexane-3-carboxamide]: the IC50 is less than 1000 nM.

As to `CC(=O)c1nn(CC(=O)N2[C@@H]3C[C@@H]3C[C@H]2C(=O)Nc2cccc(Br)n2)c2ccc(-c3cnc(C)nc3)cc12` [Compound 190, (1R,3S,5R)-2-(2-(3-acetyl-5-(2-methylpyrimidin-5-yl)-1H-indazol-1-yl)acetyl)-N-(6-bromopyridin-2-yl)-2-azabicyclo[3.1.0] hexane-3-carboxamide], the IC50 is less than 1000 nM.

For `CC(=O)c1cn(CC(=O)N2C[C@H](F)C[C@H]2C(=O)Nc2cccc(-c3ccccc3Cl)c2F)c2ccc(-c3cnc(C(F)(F)F)nc3)cc12` [Compound 191, (2S,4R)-1-(2-(3-acetyl-5-(2-(trifluoromethyl)pyrimidin-5-yl)-1H-indol-1-yl)acetyl)-N-(2′-chloro-2-fluorobiphenyl-3-yl)-4-fluoropyrrolidine-2-carboxamide], the IC50 was less than 1000 nM.

The experiment is the same for the next values; noted with them: Human Factor D assay of Example 8; Table 2; read-out: IC50.
`CC(=O)c1ccc(Cl)c(-c2cccc(NC(=O)[C@@H]3C[C@@H](F)CN3C(=O)Cn3nc(C(C)=O)c4cc(-c5cnc(C)nc5)ccc43)c2F)c1` [Compound 192, (2S,4R)-N-(5′-acetyl-2′-chloro-2-fluorobiphenyl-3-yl)-1-(2-(3-acetyl-5-(2-methylpyrimidin-5-yl)-1H-indazol-1-yl)acetyl)-4-fluoropyrrolidine-2-carboxamide]: the IC50 was less than 1000 nM.

For `CC(=O)c1cn(CC(=O)N2C[C@H](F)C[C@H]2C(=O)Nc2cccc(-c3ccccc3Cl)c2F)c2ccc(-c3cnc(NCC(F)(F)F)nc3)cc12` [Compound 193, (2S,4R)-1-(2-(3-acetyl-5-(2-(2,2,2-trifluoroethylamino)pyrimidin-5-yl)-1H-indol-1-yl)acetyl)-N-(2′-chloro-2-fluorobiphenyl-3-yl)-4-fluoropyrrolidine-2-carboxamide], the IC50 is less than 1000 nM.

With `CCOc1ncc(-c2ccc3c(c2)c(C(C)=O)cn3CC(=O)N2C[C@H](F)C[C@H]2C(=O)Nc2cccc(-c3ccccc3Cl)c2F)cn1` [Compound 194, (2S,4R)-1-(2-(3-acetyl-5-(2-ethoxypyrimidin-5-yl)-1H-indol-1-yl)acetyl)-N-(2′-chloro-2-fluorobiphenyl-3-yl)-4-fluoropyrrolidine-2-carboxamide], the IC50 was less than 1000 nM.

`NC(=O)c1nn(CC(=O)N2C[C@H](F)C[C@H]2C(=O)Nc2cccnc2O)c2ccc(-c3ccnnc3)cc12` [Compound 196, 1-(2-((2S,4R)-4-fluoro-2-(2-hydroxypyridin-3-ylcarbamoyl)pyrrolidin-1-yl)-2-oxoethyl)-5-(pyridazin-4-yl)-1H-indazole-3-carboxamide]: the IC50 was greater than 10000 nM.

In the case of `CC(=O)c1cn(CC(=O)N2C[C@H](F)C[C@H]2C(=O)Nc2cccnc2O)c2ccc(-c3ccnnc3)cc12` [Compound 197], the IC50 is greater than 10000 nM.

`CC(=O)c1nn(CC(=O)N2C[C@H](F)C[C@H]2C(=O)Nc2cccc(-c3cc(C(N)=O)ccc3Cl)c2F)c2ccc(-c3cnc(C)nc3)cc12` [Compound 198, (2S,4R)-1-(2-(3-acetyl-5-(2-methylpyrimidin-5-yl)-1H-indazol-1-yl)acetyl)-N-(5′-carbamoyl-2′-chloro-2-fluorobiphenyl-3-yl)-4-fluoropyrrolidine-2-carboxamide]: the IC50 was less than 1000 nM.

Take `Cc1ncc(-c2ccc3c(c2)c(C(N)=O)nn3CC(=O)N2[C@@H]3C[C@@H]3C[C@H]2C(=O)Nc2cccc(Br)n2)cn1` [Compound 202, 1-(2-((1R,3S,5R)-3-(6-bromopyridin-2-ylcarbamoyl)-2-azabicyclo[3.1.0]hexan-2-yl)-2-oxoethyl)-5-(2-methylpyrimidin-5-yl)-1H-indazole-3-carboxamide]: the half-maximal inhibitory concentration (IC50) was less than 1000 nM.

As to `COc1ncc(-c2ccc3c(c2)c(C(C)=O)cn3CC(=O)N2C[C@H](Cl)C[C@H]2C(=O)Nc2cccc(-c3ccccc3Cl)c2F)cn1` [Compound 203], the IC50 is less than 1000 nM.

In the case of `COC(=O)c1ncc(-c2ccc3c(c2)c(C(C)=O)cn3CC(=O)N2C[C@H](F)C[C@H]2C(=O)Nc2cccc(-c3ccccc3Cl)c2F)cn1` [Compound 204, methyl 5-(3-acetyl-1-(2-((2S,4R)-2-(2′-chloro-2-fluorobiphenyl-3-ylcarbamoyl)-4-fluoropyrrolidin-1-yl)-2-oxoethyl)-1H-indol-5-yl)pyrimidine-2-carboxylate], the IC50 was less than 1000 nM.

Regarding `CC(=O)c1cn(CC(=O)N2C[C@H](F)C[C@H]2C(=O)Nc2cccc(-c3ccccc3Cl)c2F)c2ccc(-c3cnc(C(=O)O)nc3)cc12` [Compound 205, 5-(3-acetyl-1-(2-((2S,4R)-2-(2′-chloro-2-fluorobiphenyl-3-ylcarbamoyl)-4-fluoropyrrolidin-1-yl)-2-oxoethyl)-1H-indol-5-yl)pyrimidine-2-carboxylic acid], the IC50 was less than 1000 nM.

As to `CC(=O)c1cn(CC(=O)N2C[C@H](F)C[C@H]2C(=O)Nc2cccc(-c3ccncc3Cl)c2F)c2ccc(-c3cnc(C)nc3)cc12` [Compound 206, (2S,4R)-1-(2-(3-acetyl-5-(2-methylpyrimidin-5-yl)-1H-indol-1-yl)acetyl)-N-(3-(3-chloropyridin-4-yl)-2-fluorophenyl)-4-fluoropyrrolidine-2-carboxamide], the half-maximal inhibitory concentration (IC50) was less than 1000 nM.

Take `CC(=O)c1cn(CC(=O)N2C[C@H](F)C[C@H]2C(=O)Nc2cccc(-c3ccccc3Cl)c2F)c2ccc(-c3cnc(C)c(Cl)c3)cc12` [Compound 207, (2S,4R)-1-(2-(3-acetyl-5-(5-chloro-6-methylpyridin-3-yl)-1H-indol-1-yl)acetyl)-N-(2′-chloro-2-fluorobiphenyl-3-yl)-4-fluoropyrrolidine-2-carboxamide]: the IC50 is less than 1000 nM.

As to `NC(=O)c1nn(CC(=O)N2C[C@H](F)C[C@H]2C(=O)Nc2cccc(-c3ccccc3Cl)c2F)cc1-c1ccsc1` [Compound 208, 1-(2-((2S,4R)-2-(2′-chloro-2-fluorobiphenyl-3-ylcarbamoyl)-4-fluoropyrrolidin-1-yl)-2-oxoethyl)-4-(thiophen-3-yl)-1H-pyrazole-3-carboxamide], the IC50 was in the range of 1000 to 10000 nM.

On to `CC(=O)c1cn(CC(=O)N2C[C@H](F)C[C@H]2C(=O)Nc2cccc(-c3ccccc3Cl)c2F)c2ccc(-c3cnc(C(N)=O)nc3)cc12` [Compound 209, 5-(3-acetyl-1-(2-((2S,4R)-2-(2′-chloro-2-fluorobiphenyl-3-ylcarbamoyl)-4-fluoropyrrolidin-1-yl)-2-oxoethyl)-1H-indol-5-yl)pyrimidine-2-carboxamide], for which the half-maximal inhibitory concentration (IC50) is less than 1000 nM.

`CC(=O)c1cn(CC(=O)N2C[C@H](F)C[C@H]2C(=O)Nc2cccc(-c3ccccc3Cl)c2F)c2ccc(-c3cnc(S(C)(=O)=O)nc3)cc12` [Compound 210, (2S,4R)-1-(2-(3-acetyl-5-(2-(methylsulfonyl)pyrimidin-5-yl)-1H-indol-1-yl)acetyl)-N-(2′-chloro-2-fluorobiphenyl-3-yl)-4-fluoropyrrolidine-2-carboxamide]: the IC50 is less than 1000 nM.

Turning to `CC(=O)c1cn(CC(=O)N2C[C@H](F)C[C@H]2C(=O)Nc2cccc(-c3ccccc3Cl)c2F)c2ccc(-c3cnc(C(=O)NC4CC4)nc3)cc12` [Compound 211, 5-(3-acetyl-1-(2-((2S,4R)-2-(2′-chloro-2-fluorobiphenyl-3-ylcarbamoyl)-4-fluoropyrrolidin-1-yl)-2-oxoethyl)-1H-indol-5-yl)-N-cyclopropylpyrimidine-2-carboxamide], the IC50 was less than 1000 nM.
